Laboratory results as given in patent US11026943B2, “Aminoquinoline derivatives and uses thereof” (UNIVERSITY OF DELHI, priority 2012, dated 2021).

Assay: Solubility (solvent listed in compound tables)
Format: physicochemical
Details: solvent named, Table 3

| Compound | SOLUBILITY |
| --- | --- |
| Cc1cc(NCCNc2ccnc3cc(Cl)ccc23)nc(N2CCCCC2)n1 [SM 490] | DMSO |
| OCCCNc1nc(NCCNc2ccnc3cc(Cl)ccc23)nc(N2CCCCC2)n1 [SM 370] | DMSO |
| Cc1cc(N2CCN(c3ccnc4cc(Cl)ccc34)CC2)nc(N2CCOCC2)n1 [ATH 239] | DMSO |
| COc1ccc(Nc2nc(NCCCCNc3ccnc4cc(Cl)ccc34)nc(N3CCOCC3)n2)cc1 [SM 356] | DMSO |
| Clc1ccc2c(N3CCN(c4nccc(Nc5ccc(Br)cc5)n4)CC3)ccnc2c1 [ATH 226] | DMSO |
| Cc1cc(N2CCN(c3ccnc4cc(Cl)ccc34)CC2)nc(Cl)n1 [ATH 237] | DMSO |
| OCCCCNc1nc(NCCCCNc2ccnc3cc(Cl)ccc23)nc(N2CCCCC2)n1 [SM 375] | DMSO |
| OCCCCNc1nc(NCCNc2ccnc3cc(Cl)ccc23)nc(N2CCOCC2)n1 [SM 360] | DMSO |
| COc1cc(Nc2nc(NCCNCc3c4ccc(Cl)cc4nc4ccc(OC)cc34)nc(NC3CCCCC3)n2)cc(OC)c1 [ATH 194] | DMSO |
| Fc1ccc(Nc2ccnc(N3CCN(c4ccnc5cc(Cl)ccc45)CC3)n2)cc1 [ATH 223] | DMSO |
| CCN1CCN(c2nc(Cl)cc(NCCNc3ccnc4cc(Cl)ccc34)n2)CC1 [SM 702] | DMSO |
| COc1ccc(Nc2nc(NCCNc3c4ccc(Cl)cc4nc4ccc(OC)cc34)nc(N3CCCCC3)n2)cc1 [ATH 189] | DMSO |
| COc1ccc(Nc2nc(NCCNCc3c4ccc(Cl)cc4nc4ccc(OC)cc34)nc(N(C)C)n2)cc1 [ATH 196] | DMSO |
| Cc1cc(NCCCCNc2ccnc3cc(Cl)ccc23)nc(N2CCCCC2)n1 [SM 499] | DMSO |
| CCN1CCN(c2cc(Cl)nc(NCCNc3ccnc4cc(Cl)ccc34)n2)CC1 [SM 704] | DMSO |
| COc1ccc(Nc2nc(NCCNCc3c4ccc(Cl)cc4nc4ccc(OC)cc34)nc(N3CCCCC3)n2)cc1 [ATH 191] | DMSO |
| OCCCCNc1nc(NCCCCNc2ccnc3cc(Cl)ccc23)nc(N2CCOCC2)n1 [SM 362] | DMSO |
| CCc1ccc(Nc2nc(NCCCNc3ccnc4cc(Cl)ccc34)nc(N3CCOCC3)n2)cc1 [SM 340] | DMSO |
| COc1ccc(Nc2nc(NCCNc3c4ccc(Cl)cc4nc4ccc(OC)cc34)nc(N(C)C)n2)cc1 [ATH 165] | DMSO |
| OCCCNc1nc(NCCNc2ccnc3cc(Cl)ccc23)nc(N2CCOCC2)n1 [SM 350] | DMSO |
| CCN1CCN(c2ccnc(NCCCNc3ccnc4cc(Cl)ccc34)n2)CC1 [SM 727] | DMSO |
| Clc1ccc2c(NCCCNc3nc(Cl)cc(N4CCCCC4)n3)ccnc2c1 [SM 715] | DMSO |
| COc1ccc(Nc2cc(C)nc(N3CCN(c4ccnc5cc(Cl)ccc45)CC3)n2)cc1 [ATH 245] | DMSO |
| Clc1ccc2c(N3CCN(c4ccnc(N5CCCC5)n4)CC3)ccnc2c1 [ATH 252] | DMSO |
| Clc1ccc2c(N3CCN(c4ccnc(N5CCCCC5)n4)CC3)ccnc2c1 [ATH 231] | DMSO |
| COc1cc(Nc2nc(NCCNc3c4ccc(Cl)cc4nc4ccc(OC)cc34)nc(NC3CCCCC3)n2)cc(OC)c1 [ATH 192] | DMSO |
| Clc1ccc2c(NCCCNc3ccnc(N4CCCCC4)n3)ccnc2c1 [SM 720] | DMSO |

| Compound | SOLUBILITY |
| --- | --- |
| Clc1ccc2c(NCCNc3nc(Cl)nc(NCCNc4ccnc5cc(Cl)ccc45)n3)ccnc2c1 [SM 133] | DMSO |
| COc1cc(Nc2cc(C)nc(N3CCN(c4ccnc5cc(Cl)ccc45)CC3)n2)cc(OC)c1 [ATH 244] | DMSO |
| OCCNc1nc(NCCCCNc2ccnc3cc(Cl)ccc23)nc(N2CCOCC2)n1 [SM 345] | DMSO |
| Clc1ccc2c(NCCNc3nccc(N4CCOCC4)n3)ccnc2c1 [SM 733] | DMSO |
| COc1ccc(Nc2nc(NCCCNc3c4ccc(Cl)cc4nc4ccc(OC)cc34)nc(N(C)C)n2)cc1 [ATH 166] | DMSO |
| OCCNc1nc(NCCCNc2ccnc3cc(Cl)ccc23)nc(N2CCOCC2)n1 [SM 353] | DMSO |
| Cc1cc(N2CCN(c3ccnc4cc(Cl)ccc34)CC2)nc(N2CCCCC2)n1 [ATH 240] | DMSO |
| Cc1cc(NCCCNc2ccnc3cc(Cl)ccc23)nc(N2CCN(C)CC2)n1 [SM 494] | DMSO |
| OCCNc1nc(NCCNc2ccnc3cc(Cl)ccc23)nc(N2CCCCC2)n1 [SM 365] | DMSO |
| CC(CNc1ccnc2cc(Cl)ccc12)Nc1nc(N2CCOCC2)nc(N2CCOCC2)n1 (stereo not drawn) [SM 143] | DMSO |
| COc1cc(Nc2nc(NC(C)CNc3ccnc4cc(Cl)ccc34)nc(N3CCOCC3)n2)cc(OC)c1 (stereo not drawn) [SM 130] | DMSO |
| CN1CCN(c2ccnc(NCCNc3ccnc4cc(Cl)ccc34)n2)CC1 [SM 734] | DMSO |
| OCCCNc1nc(NCCCCNc2ccnc3cc(Cl)ccc23)nc(N2CCCCC2)n1 [SM 372] | DMSO |
| Cc1cc(NCCNc2ccnc3cc(Cl)ccc23)nc(N2CCOCC2)n1 [SM 489] | DMSO |
| Clc1ccc2c(NCCNc3ccnc(N4CCCCC4)n3)ccnc2c1 [SM 730] | DMSO |
| CCN(CC)c1nc(Cl)nc(NCCNc2ccnc3cc(Cl)ccc23)n1 [SM 137] | DMSO |
| Clc1ccc2c(N3CCN(c4ccnc(NC5CCCCC5)n4)CC3)ccnc2c1 [ATH 236] | DMSO |
| Clc1ccc2c(NCCNc3cc(Cl)nc(N4CCCCC4)n3)ccnc2c1 [SM 697] | DMSO |
| COc1cc(Nc2nc(NCCCNc3c4ccc(Cl)cc4nc4ccc(OC)cc34)nc(N3CCN(c4ccccc4)CC3)n2)cc(OC)c1 [ATH 171] | DMSO |
| OCCNc1nc(NCCNc2ccnc3cc(Cl)ccc23)nc(N2CCOCC2)n1 [SM 352] | DMSO |
| CN1CCN(c2cc(Cl)nc(NCCNc3ccnc4cc(Cl)ccc34)n2)CC1 [SM 703] | DMSO |
| COc1ccc(Nc2nc(NCCCNc3c4ccc(Cl)cc4nc4ccc(OC)cc34)nc(NC3CCCCC3)n2)cc1 [ATH 201] | DMSO |
| Fc1ccc(Nc2nc(NCCCNc3ccnc4cc(Cl)ccc34)nc(N3CCOCC3)n2)cc1 [SM 339] | DMSO |
| Clc1ccc2c(N3CCN(c4ccnc(N5CCOCC5)n4)CC3)ccnc2c1 [ATH 228] | DMSO |
| Cc1ccccc1Nc1nc(NCCNc2ccnc3cc(Cl)ccc23)nc(Nc2ccccc2C)n1 [SM 144] | DMSO |
| CCN1CCN(c2cc(Cl)nc(NCCCNc3ccnc4cc(Cl)ccc34)n2)CC1 [SM 718] | DMSO |

Results, then the compound that gave them:

| SOLUBILITY | Compound |
| --- | --- |
| DMSO | Cc1cc(Cl)nc(NCCNc2ccnc3cc(Cl)ccc23)n1 [SM 488B] |
| DMSO | Clc1ccc2c(NCCNc3cc(Cl)nc(Cl)n3)ccnc2c1 [SM 695A] |
| DMSO | Cc1cc(Cl)nc(NCCCCCCNc2ccnc3cc(Cl)ccc23)n1 [SM 504B] |
| DMSO | Cc1cc(Cl)nc(NCCCNc2ccnc3cc(Cl)ccc23)n1 [SM 484B] |
| DMSO | Cc1cc(Cl)nc(NCCCCNc2ccnc3cc(Cl)ccc23)n1 [SM 498B] |
| DMSO | Clc1ccc2c(NCCCNc3nc(Cl)cc(Cl)n3)ccnc2c1 [SM 710B] |
| DMSO | Clc1ccc2c(NCCNc3nccc(Cl)n3)ccnc2c1 [SM 728B] |
| DMSO | Cc1cc(NCCCNc2ccnc3cc(Cl)ccc23)nc(Cl)n1 [SM 484A] |

Same assay, conditions: solvent named, Table 4

| Compound | SOLUBILITY |
| --- | --- |
| COc1cc(Nc2ccnc(NCCCNc3ccnc4cc(Cl)ccc34)n2)cc(OC)c1 [DKG830] | DMSO |
| COc1cc(Nc2ccnc(NCCCCNc3ccnc4cc(Cl)ccc34)n2)cc(OC)c1 [DKG831] | DMSO |
| COc1ccc(Nc2ccnc(NCCCCNc3ccnc4cc(Cl)ccc34)n2)cc1 [DKG827] | DMSO |
| Cc1cc(Nc2ccc(Cl)cc2)nc(NCCCNc2ccnc3cc(Cl)ccc23)n1 [DKG846] | DMSO |
| Clc1ccc2c(NCCNc3nccc(Nc4ccccc4)n3)ccnc2c1 [DKG821] | DMSO |
| Fc1ccc(Nc2ccnc(NCCCCNc3ccnc4cc(Cl)ccc34)n2)cc1 [DKG819] | DMSO |
| Clc1ccc(Nc2ccnc(NCCCCNc3ccnc4cc(Cl)ccc34)n2)cc1 [DKG815] | DMSO |
| Cc1ccc(Nc2ccnc(NCCCNc3ccnc4cc(Cl)ccc34)n2)cc1 [DKG806] | DMSO |
| Cc1cc(Nc2ccccc2)nc(NCCCNc2ccnc3cc(Cl)ccc23)n1 [DKG834] | DMSO |
| Cc1cc(Nc2ccccc2)nc(NCCNc2ccnc3cc(Cl)ccc23)n1 [DKG833] | DMSO |
| COc1ccc(Nc2cc(C)nc(NCCCCNc3ccnc4cc(Cl)ccc34)n2)cc1 [DKG839] | DMSO |
| Cc1ccc(Nc2cc(C)nc(NCCNc3ccnc4cc(Cl)ccc34)n2)cc1 [DKG857] | DMSO |
| Cc1cc(Nc2ccc(F)cc2)nc(NCCCCNc2ccnc3cc(Cl)ccc23)n1 [DKG855] | DMSO |
| COc1ccc(Nc2ccnc(NCCCNc3ccnc4cc(Cl)ccc34)n2)cc1 [DKG826] | DMSO |
| Cc1ccc(Nc2ccnc(NCCCCNc3ccnc4cc(Cl)ccc34)n2)cc1 [DKG807] | DMSO |

Same assay, conditions: solvents listed for the compound

| Compound | SOLUBILITY |
| --- | --- |
| Cc1cc(NCCCCNc2ccnc3cc(Cl)ccc23)nc(NCCCCCCO)n1 [MT1-196] | MeOH, DMSO |
| OCCCCCCNc1nccc(NCCCCNc2ccnc3cc(Cl)ccc23)n1 [MT1-163] | MeOH, DMSO |
| Cc1cc(NCCNc2ccnc3cc(Cl)ccc23)nc(NCCCO)n1 [MT1-186] | MeOH, DMSO |
| OCCCCCNc1nccc(NCCCNc2ccnc3cc(Cl)ccc23)n1 [MT1-128] | MeOH, DMSO |
| Cc1cc(NCCCNc2ccnc3cc(Cl)ccc23)nc(NCCCCO)n1 [MT1-147] | MeOH, DMSO |
| OCCNc1nccc(NCCCCNc2ccnc3cc(Cl)ccc23)n1 [MT1-156] | MeOH, DMSO |
| OCCCCCCNc1nccc(NCCCNc2ccnc3cc(Cl)ccc23)n1 [MT1-132] | MeOH, DMSO |
| Cc1cc(NCCCCNc2ccnc3cc(Cl)ccc23)nc(NCCCCCO)n1 [MT1-195] | MeOH, DMSO |
| Cc1cc(NCCNc2ccnc3cc(Cl)ccc23)nc(NCCCCCCO)n1 [MT1-191] | MeOH, DMSO |
| Cc1cc(NCCNc2ccnc3cc(Cl)ccc23)nc(NCCCCCO)n1 [MT1-190] | MeOH, DMSO |
| OCCNc1nccc(NCCCNc2ccnc3cc(Cl)ccc23)n1 [MT1-127] | MeOH, DMSO |
